From the supplement of paper PMC6965134
± gives the standard deviation of the averaged measurements.

Test: TIMS collisional cross section (CCS, N2) of the lipid ion; higher = larger ion cross section
Conditions: ionization mode: positive, one isomer drawn

Compound | TIMS collisional cross section (sample type: HeLa) | TIMS collisional cross section (sample type: plasma) | TIMS collisional cross section (sample type: Liver)
CCCCCC/C=C\CCCCCCCC(=O)O[C@H](COC(=O)CCCCCCCCCCCCC)COP(=O)([O-])OCC[N+](C)(C)C [PC 14:0_16:1@] (ion (formula + adduct): [C38H74NO8P+H] 1+) | 276.5 Å² | – | –
CCCCCC/C=C\CCCCCCCC(=O)O[C@H](COC(=O)CCCCCCCCCCCCC)COP(=O)([O-])OCC[N+](C)(C)C [PC 14:0_16:1] (ion (formula + adduct): [C38H74NO8P+H] 1+) | 275.8 Å² | – | –
CCC/C=C\C/C=C\CCCCCCCCCC(=O)O[C@H](COC(=O)CCCCCCCCCCCCC)COP(=O)([O-])OCC[N+](C)(C)C [PC 14:0_18:2] (ion (formula + adduct): [C40H76NO8P+H] 1+) | 279.2 Å² | 278.7 Å² | –
CC/C=C\C/C=C\C/C=C\C/C=C\C/C=C\C/C=C\CCC(=O)O[C@H](COC(=O)CCCCCCCCCCCCC)COP(=O)([O-])OCC[N+](C)(C)C [PC 14:0_22:6@] (ion (formula + adduct): [C44H76NO8P+H] 1+) | 285.3 Å² | – | –
CCCC/C=C\CCCCCCCC(=O)OC[C@H](COP(=O)([O-])OCC[N+](C)(C)C)OC(=O)CCCCCCC/C=C\CCCCCC [PC 14:1@_16:1] (ion (formula + adduct): [C38H72NO8P+H] 1+) | 272.4 Å² | – | –
CCCC/C=C\CCCCCCCC(=O)OC[C@H](COP(=O)([O-])OCC[N+](C)(C)C)OC(=O)CCCCCCCCCCCCCCCCC [PC 14:1@_18:0] (ion (formula + adduct): [C40H78NO8P+H] 1+) | 282.3 Å² | – | –
CCCCC/C=C\C/C=C\CCCCCCCC(=O)O[C@H](COC(=O)CCCCCCCCCCCCCC)COP(=O)([O-])OCC[N+](C)(C)C [PC 15:0@_18:2] (ion (formula + adduct): [C41H78NO8P+H] 1+) | – | 280.9 Å² | 281 Å²
CCCCC/C=C\C/C=C\C/C=C\CCCCC(=O)O[C@H](COC(=O)CCCCCCCCCCCCCC)COP(=O)([O-])OCC[N+](C)(C)C [PC 15:0@_18:3] (ion (formula + adduct): [C41H76NO8P+H] 1+) | 279.7 Å² | – | –
CC/C=C\C/C=C\C/C=C\C/C=C\C/C=C\CCCC(=O)O[C@H](COC(=O)CCCCCCCCCCCCCC)COP(=O)([O-])OCC[N+](C)(C)C [PC 15:0@_20:5] (ion (formula + adduct): [C43H76NO8P+H] 1+) | 282.3 Å² | – | –
CC/C=C\C/C=C\C/C=C\C/C=C\C/C=C\C/C=C\CCC(=O)O[C@H](COC(=O)CCCCCCCCCCCCCC)COP(=O)([O-])OCC[N+](C)(C)C [PC 15:0@_22:6] (ion (formula + adduct): [C45H78NO8P+H] 1+) | – | 288.2 Å² | –
CCCCCCCCCCCCCCCC(=O)O[C@H](COC(=O)CCCCCCCCCCCCCC)COP(=O)([O-])OCC[N+](C)(C)C [PC 15:0_16:0] (ion (formula + adduct): [C39H78NO8P+H] 1+) | 282.1 Å² | – | –
CCCCCC/C=C\CCCCCCCC(=O)O[C@H](COC(=O)CCCCCCCCCCCCCC)COP(=O)([O-])OCC[N+](C)(C)C [PC 15:0_16:1] (ion (formula + adduct): [C39H76NO8P+H] 1+) | 278.9 Å² | – | –
CC/C=C\C/C=C\C/C=C\C/C=C\C/C=C\C/C=C\CCC(=O)O[C@H](COC(=O)CCCCCCCCCCCCCC)COP(=O)([O-])OCC[N+](C)(C)C [PC 15:0_22:6] (ion (formula + adduct): [C45H78NO8P+H] 1+) | – | – | 288 Å²
CCCCC/C=C\CCCCCCCC(=O)OC[C@H](COP(=O)([O-])OCC[N+](C)(C)C)OC(=O)CCCCCCC/C=C\CCCCCC [PC 15:1_16:1@] (ion (formula + adduct): [C39H74NO8P+H] 1+) | 272.8 Å² | – | –
CCCCC/C=C\C/C=C\C/C=C\C/C=C\CCCCCC(=O)O[C@H](COC(=O)CCCCCCC/C=C\CCCCC)COP(=O)([O-])OCC[N+](C)(C)C [PC 15:1_22:4] (ion (formula + adduct): [C45H80NO8P+H] 1+) | 290.2 Å² | – | –
CC/C=C\C/C=C\C/C=C\C/C=C\C/C=C\C/C=C\CCC(=O)O[C@H](COC(=O)CCCCCCC/C=C\CCCCC)COP(=O)([O-])OCC[N+](C)(C)C [PC 15:1_22:6] (ion (formula + adduct): [C45H76NO8P+H] 1+) | – | 289.8 Å² | –
CCCCCC/C=C\CCCCCCCC(=O)O[C@H](COC(=O)CCCCCCCCCCCCCCC)COP(=O)([O-])OCC[N+](C)(C)C [PC 16:0@_16:1] (ion (formula + adduct): [C40H78NO8P+H] 1+) | 281.7 Å² | 282.2 Å² | –
CCCCCCCC/C=C\CCCCCCCC(=O)O[C@H](COC(=O)CCCCCCCCCCCCCCC)COP(=O)([O-])OCC[N+](C)(C)C [PC 16:0@_18:1] (ion (formula + adduct): [C42H82NO8P+H] 1+) | 289.15 ± 0.49 Å² | 288.2 Å² | 287.6 Å²

Compound | TIMS collisional cross section (sample type: HeLa) | TIMS collisional cross section (sample type: plasma) | TIMS collisional cross section (sample type: Liver)
CCCCC/C=C\C=C\CCCCCCCCC(=O)O[C@H](COC(=O)CCCCCCCCCCCCCCC)COP(=O)([O-])OCC[N+](C)(C)C [PC 16:0@_18:2] (ion (formula + adduct): [C42H80NO8P+H] 1+) | – | 284.9 Å² | 283.5 Å²
CCCCCCCC/C=C\C/C=C\C/C=C\CCCC(=O)O[C@H](COC(=O)CCCCCCCCCCCCCCC)COP(=O)([O-])OCC[N+](C)(C)C [PC 16:0@_20:3] (ion (formula + adduct): [C44H82NO8P+H] 1+) | – | – | 289.8 Å²
CC/C=C\C/C=C\C/C=C\C/C=C\C/C=C\CCCC(=O)O[C@H](COC(=O)CCCCCCCCCCCCCCC)COP(=O)([O-])OCC[N+](C)(C)C [PC 16:0@_20:5] (ion (formula + adduct): [C44H78NO8P+H] 1+) | – | 290.6 Å² | –
CCCCC/C=C\C/C=C\C/C=C\C/C=C\CCCCCC(=O)O[C@H](COC(=O)CCCCCCCCCCCCCCC)COP(=O)([O-])OCC[N+](C)(C)C [PC 16:0@_22:4] (ion (formula + adduct): [C46H84NO8P+H] 1+) | 294.9 Å² | – | –
CCCCC/C=C\C/C=C\C/C=C\C/C=C\C/C=C\CCC(=O)O[C@H](COC(=O)CCCCCCCCCCCCCCC)COP(=O)([O-])OCC[N+](C)(C)C [PC 16:0@_22:5] (ion (formula + adduct): [C46H82NO8P+H] 1+) | – | – | 293.8 Å²
CCCCCCCCCCCCCCCC(=O)OC[C@H](COP(=O)([O-])OCC[N+](C)(C)C)OC(=O)CCCCCCCCCCCCCCC [PC 16:0_16:0] (ion (formula + adduct): [C40H80NO8P+H] 1+) | 286.1 Å² | 285.7 ± 0.42 Å² | 285.5 Å²
CCCCCC/C=C\CCCCCCCC(=O)O[C@H](COC(=O)CCCCCCCCCCCCCCC)COP(=O)([O-])OCC[N+](C)(C)C [PC 16:0_16:1@] (ion (formula + adduct): [C40H78NO8P+H] 1+) | 282 Å² | – | –
CCCCCC/C=C\CCCCCCCC(=O)O[C@H](COC(=O)CCCCCCCCCCCCCCC)COP(=O)([O-])OCC[N+](C)(C)C [PC 16:0_16:1] (ion (formula + adduct): [C40H78NO8P+H] 1+) | 282.63 ± 1.3 Å² | 282.3 Å² | 282.3 Å²
CCCCCCC/C=C\CCCCCCCC(=O)O[C@H](COC(=O)CCCCCCCCCCCCCCC)COP(=O)([O-])OCC[N+](C)(C)C [PC 16:0_17:1] (ion (formula + adduct): [C41H80NO8P+H] 1+) | 285.8 Å² | – | –
CCCCCCCCCCCCCCCCCC(=O)O[C@H](COC(=O)CCCCCCCCCCCCCCC)COP(=O)([O-])OCC[N+](C)(C)C [PC 16:0_18:0] (ion (formula + adduct): [C42H84NO8P+H] 1+) | – | – | 291.4 Å²
CCCCCCCC/C=C\CCCCCCCC(=O)O[C@H](COC(=O)CCCCCCCCCCCCCCC)COP(=O)([O-])OCC[N+](C)(C)C [PC 16:0_18:1] (ion (formula + adduct): [C42H82NO8P+H] 1+) | 288.37 ± 0.9 Å² | 287.7 Å² | –
CCCCCCCC/C=C\CCCCCCCC(=O)O[C@H](COC(=O)CCCCCCCCCCCCCCC)COP(=O)([O-])OCC[N+](C)(C)C [PC 16:0_18:1] (ion (formula + adduct): [C42H82NO8P+Na] 1+) | 288.7 Å² | – | –
CCCCC/C=C\C=C\CCCCCCCCC(=O)O[C@H](COC(=O)CCCCCCCCCCCCCCC)COP(=O)([O-])OCC[N+](C)(C)C [PC 16:0_18:2] (ion (formula + adduct): [C42H80NO8P+H] 1+) | – | 282.45 ± 2.8 Å² | 286.3 Å²
CCCCC/C=C\C/C=C\C/C=C\CCCCC(=O)O[C@H](COC(=O)CCCCCCCCCCCCCCC)COP(=O)([O-])OCC[N+](C)(C)C [PC 16:0_18:3] (ion (formula + adduct): [C42H78NO8P+H] 1+) | – | 282 Å² | 282 Å²
CCCCCCCC/C=C\CCCCCCCCCC(=O)O[C@H](COC(=O)CCCCCCCCCCCCCCC)COP(=O)([O-])OCC[N+](C)(C)C [PC 16:0_20:1@] (ion (formula + adduct): [C44H86NO8P+H] 1+) | – | – | 295.2 Å²
CCCCCCCC/C=C\C/C=C\C/C=C\CCCC(=O)O[C@H](COC(=O)CCCCCCCCCCCCCCC)COP(=O)([O-])OCC[N+](C)(C)C [PC 16:0_20:3] (ion (formula + adduct): [C44H82NO8P+H] 1+) | – | 290.5 Å² | –
CC/C=C\C/C=C\C/C=C\C/C=C\C/C=C\CCCC(=O)O[C@H](COC(=O)CCCCCCCCCCCCCCC)COP(=O)([O-])OCC[N+](C)(C)C [PC 16:0_20:5@] (ion (formula + adduct): [C44H78NO8P+H] 1+) | 286.9 Å² | – | –
